In this assay the target is T1, Coagulation factor XII (Homo sapiens, UniProt P00748).
T1 sequence (P00748 whole entry): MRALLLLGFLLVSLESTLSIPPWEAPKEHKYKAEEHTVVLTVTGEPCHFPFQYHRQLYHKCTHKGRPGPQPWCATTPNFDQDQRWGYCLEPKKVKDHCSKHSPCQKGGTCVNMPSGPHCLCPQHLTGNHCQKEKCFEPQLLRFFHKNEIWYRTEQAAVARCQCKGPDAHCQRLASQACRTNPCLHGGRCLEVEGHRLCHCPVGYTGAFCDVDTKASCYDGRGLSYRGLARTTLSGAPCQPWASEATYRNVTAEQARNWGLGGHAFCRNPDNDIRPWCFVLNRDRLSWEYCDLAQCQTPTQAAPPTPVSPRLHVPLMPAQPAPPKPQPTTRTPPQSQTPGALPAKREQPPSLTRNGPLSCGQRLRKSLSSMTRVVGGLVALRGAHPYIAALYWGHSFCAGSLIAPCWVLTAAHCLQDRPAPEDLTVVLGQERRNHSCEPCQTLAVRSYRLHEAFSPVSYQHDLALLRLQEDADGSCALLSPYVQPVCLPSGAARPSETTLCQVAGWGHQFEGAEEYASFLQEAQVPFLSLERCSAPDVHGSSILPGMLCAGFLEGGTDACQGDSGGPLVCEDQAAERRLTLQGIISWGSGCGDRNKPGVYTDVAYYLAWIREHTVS
In words: Inhibition of human beta factor 12a using fluorogenic substrate Boc-Gln-Gly-Arg-AMC preincubated for 10 mins followed by addition of substrate measured every min for 30 mins.

The structures appear in SMILES notation. *1 amine or outer side, *2 acyl side, *3 side chain or, on linkers, in order; H or OH if unused. Where a SMILES comes first, the peptide text is derived from it. Bridges are numbered along the chain shown (N, C = ends). [ ]: non-standard residue; d: D form. TATA = O=C(CC[*:1])N1CN(C(=O)CC[*:2])CN(C(=O)CC[*:3])C1; hArg = N=C(N)NCCCC[C@H](N)C(=O)O A value given as a limit tells only on which side of the number the result lay.

By Ki is commonly meant a dissociation constant, usually derived from enzyme kinetics or from competition with a known ligand. Lower therefore signals a stronger hold on the target.

`CC(C)C[C@@H]1NC(=O)[C@H](CCC(N)=O)NC(=O)[C@H](CCCNC(=N)N)NC(=O)[C@@H]2CSCCC(=O)N3CN(CN(C3)C(=O)CCSC[C@H](NC(=O)[C@@H](N)CCCNC(=N)N)C(=O)N[C@@H](Cc3cccc4ccccc34)C(=O)N[C@@H](CCCNC(=N)N)C(=O)N[C@@H](CC(C)C)C(=O)N3CCC[C@H]3C(=O)N2)C(=O)CCSC[C@@H](C(=O)N[C@@H](CCCNC(=N)N)C(=O)N[C@@H](Cc2c[nH]c3ccccc23)C(=O)O)NC(=O)[C@H](CCCNC(=N)N)NC1=O` gave a Ki of 10 nM. `CC(C)C[C@@H]1NC(=O)[C@H](CCC(N)=O)NC(=O)[C@H](CCCNC(=N)N)NC(=O)[C@@H]2CSCCC(=O)N3CN(CN(C3)C(=O)CCSC[C@H](NC(=O)[C@@H](N)CCCNC(=N)N)C(=O)N[C@@H](Cc3ccccc3)C(=O)N[C@@H](CCCNC(=N)N)C(=O)N[C@@H](CC(C)C)C(=O)N[C@@H](C(C)C)C(=O)N2)C(=O)CCSC[C@@H](C(=O)N[C@@H](CCCNC(=N)N)C(=O)N[C@@H](Cc2c[nH]c3ccccc23)C(=O)O)NC(=O)[C@H](CCCNC(=N)N)NC1=O` (H-RCFRLVCRQLRCRW-OH; linker 2-7-12 via TATA) came in with an inhibition constant (Ki) of 47 nM. Take `CC(C)C[C@@H]1NC(=O)[C@H](CCC(N)=O)NC(=O)[C@H](CCCNC(=N)N)NC(=O)[C@@H]2CSCCC(=O)N3CN(CN(C3)C(=O)CCSC[C@H](NC(=O)[C@@H](N)CCCNC(=N)N)C(=O)N[C@@H](CCc3ccccc3)C(=O)N[C@@H](CCCNC(=N)N)C(=O)N[C@@H](CC(C)C)C(=O)N3CCC[C@H]3C(=O)N2)C(=O)CCSC[C@@H](C(=O)N[C@@H](CCCNC(=N)N)C(=O)N[C@@H](Cc2c[nH]c3ccccc23)C(=O)O)NC(=O)[C@H](CCCNC(=N)N)NC1=O`: the affinity, expressed as Ki, was 366 nM. Next, `CC(C)C[C@@H]1NC(=O)[C@H](CCC(N)=O)NC(=O)[C@H](CCCNC(=N)N)NC(=O)[C@@H]2CSCCC(=O)N3CN(CN(C3)C(=O)CCSC[C@H](NC(=O)[C@@H](N)CCCNC(=N)N)C(=O)N[C@@H](Cc3ccccc3)C(=O)N[C@@H](CCCCNC(=N)N)C(=O)N[C@@H](CC(C)C)C(=O)N3CCC[C@H]3C(=O)N2)C(=O)CCSC[C@@H](C(=O)N[C@@H](CCCNC(=N)N)C(=O)N[C@@H](Cc2c[nH]c3ccccc23)C(=O)O)NC(=O)[C@H](CCCNC(=N)N)NC1=O` (H-RCF[hArg]LPCRQLRCRW-OH; linker 2-7-12 via TATA): 71 nM; `CC(C)C[C@@H]1NC(=O)[C@H](CCC(N)=O)NC(=O)[C@H](CCCNC(=N)N)NC(=O)[C@@H]2CSCCC(=O)N3CN(CN(C3)C(=O)CCSC[C@H](NC(=O)[C@@H](N)CCCNC(=N)N)C(=O)N[C@@H](Cc3c[nH]c4ccccc34)C(=O)N[C@@H](CCCNC(=N)N)C(=O)N[C@@H](CC(C)C)C(=O)N3CCC[C@H]3C(=O)N2)C(=O)CCSC[C@@H](C(=O)N[C@@H](CCCNC(=N)N)C(=O)N[C@@H](Cc2c[nH]c3ccccc23)C(=O)O)NC(=O)[C@H](CCCNC(=N)N)NC1=O` (H-RCWRLPCRQLRCRW-OH; linker 2-7-12 via TATA): 12 nM. As for `CCC(CC)C1NC(=O)[C@H](CCC(N)=O)NC(=O)[C@H](CCCNC(=N)N)NC(=O)[C@@H]2CSCCC(=O)N3CN(CN(C3)C(=O)CCSC[C@H](NC(=O)[C@@H](N)CCCNC(=N)N)C(=O)N[C@@H](Cc3ccccc3)C(=O)N[C@@H](CCCNC(=N)N)C(=O)N[C@@H](CC(C)C)C(=O)N3CCC[C@H]3C(=O)N2)C(=O)CCSC[C@@H](C(=O)N[C@@H](CCCNC(=N)N)C(=O)N[C@@H](Cc2c[nH]c3ccccc23)C(=O)O)NC(=O)[C@H](CCCNC(=N)N)NC1=O` (stereo partly specified), the figure is 38 nM; as for `CC(C)C[C@@H]1NC(=O)[C@H](CCC(N)=O)NC(=O)[C@H](CCCNC(=N)N)NC(=O)[C@@H]2CSCCC(=O)N3CN(CN(C3)C(=O)CCSC[C@H](NC(=O)[C@@H](N)CCCNC(=N)N)C(=O)N[C@@H](Cc3ccc([N+](=O)[O-])cc3)C(=O)N[C@@H](CCCNC(=N)N)C(=O)N[C@@H](CC(C)C)C(=O)N3CCC[C@H]3C(=O)N2)C(=O)CCSC[C@@H](C(=O)N[C@@H](CCCNC(=N)N)C(=O)N[C@@H](Cc2c[nH]c3ccccc23)C(=O)O)NC(=O)[C@H](CCCNC(=N)N)NC1=O`, 1.64 nM; as for `Cc1ccc(C[C@@H]2NC(=O)[C@@H](NC(=O)[C@@H](N)CCCNC(=N)N)CSCCC(=O)N3CN4CN(C3)C(=O)CCSC[C@H](NC(=O)[C@@H]3CCCN3C(=O)[C@H](CC(C)C)NC(=O)[C@H](CCCNC(=N)N)NC2=O)C(=O)N[C@@H](CCCNC(=N)N)C(=O)N[C@@H](CCC(N)=O)C(=O)N[C@@H](CC(C)C)C(=O)N[C@@H](CCCNC(=N)N)C(=O)N[C@H](C(=O)N[C@@H](CCCNC(=N)N)C(=O)N[C@@H](Cc2c[nH]c3ccccc23)C(=O)O)CSCCC4=O)cc1`, 39 nM.

Take `CC(C)C[C@@H]1NC(=O)[C@H](CCCNC(=N)N)NC(=O)[C@H](Cc2ccccc2)NC(=O)[C@@H](NC(=O)[C@@H](N)CCCNC(=N)N)CSCCC(=O)N2CN3CN(C2)C(=O)CCSC[C@@H](C(=O)N[C@@H](CCCNC(=N)N)C(=O)N[C@@H](Cc2c[nH]c4ccccc24)C(=O)O)NC(=O)[C@H](CCCNC(=N)N)NC(=O)[C@H](CC(C)C)NC(=O)[C@H](CCC(N)=O)NC(=O)[C@H](CCCNC(=N)N)NC(=O)[C@H](CSCCC3=O)NC(=O)[C@H](C)NC1=O` (H-RCFRLACRQLRCRW-OH; linker 2-7-12 via TATA): the Ki was 19.6 nM. Next, `CC(C)C[C@@H]1NC(=O)[C@H](CCC(N)=O)NC(=O)[C@H](CCCNC(=N)N)NC(=O)[C@@H]2CSCCC(=O)N3CN(CN(C3)C(=O)CCSC[C@H](NC(=O)[C@@H](N)CCCNC(=N)N)C(=O)N[C@@H](Cc3ccccc3)C(=O)N[C@@H](CCCNC(=N)N)C(=O)N[C@@H](C)C(=O)N3CCC[C@H]3C(=O)N2)C(=O)CCSC[C@@H](C(=O)N[C@@H](CCCNC(=N)N)C(=O)N[C@@H](Cc2c[nH]c3ccccc23)C(=O)O)NC(=O)[C@H](CCCNC(=N)N)NC1=O` (H-RCFRAPCRQLRCRW-OH; linker 2-7-12 via TATA): more than 3000 nM; `CC[C@H](C)[C@@H]1NC(=O)[C@@H](NC(=O)[C@@H](N)CCCNC(=N)N)CSCCC(=O)N2CN3CN(C2)C(=O)CCSC[C@H](NC(=O)[C@@H]2CCCN2C(=O)[C@H](CC(C)C)NC(=O)[C@H](CCCNC(=N)N)NC1=O)C(=O)N[C@@H](CCCNC(=N)N)C(=O)N[C@@H](CCC(N)=O)C(=O)N[C@@H](CC(C)C)C(=O)N[C@@H](CCCNC(=N)N)C(=O)N[C@H](C(=O)N[C@@H](CCCNC(=N)N)C(=O)N[C@@H](Cc1c[nH]c2ccccc12)C(=O)O)CSCCC3=O` (H-RCIRLPCRQLRCRW-OH; linker 2-7-12 via TATA): 310 nM.

Take `CC(C)C[C@@H]1NC(=O)[C@H](CCC(N)=O)NC(=O)[C@H](CCCNC(=N)N)NC(=O)[C@@H]2CSCCC(=O)N3CN(CN(C3)C(=O)CCSC[C@H](NC(=O)[C@@H](N)CCCNC(=N)N)C(=O)N[C@@H](Cc3ccccc3)C(=O)N[C@@H](CCCCN)C(=O)N[C@@H](CC(C)C)C(=O)N3CCC[C@H]3C(=O)N2)C(=O)CCSC[C@@H](C(=O)N[C@@H](CCCNC(=N)N)C(=O)N[C@@H](Cc2c[nH]c3ccccc23)C(=O)O)NC(=O)[C@H](CCCNC(=N)N)NC1=O` (H-RCFKLPCRQLRCRW-OH; linker 2-7-12 via TATA): affinity was put at a Ki of 111 nM. In the case of `CC(C)C[C@@H]1NC(=O)[C@H](Cc2cnc[nH]2)NC(=O)[C@H](CCCNC(=N)N)NC(=O)[C@@H]2CSCCC(=O)N3CN(CN(C3)C(=O)CCSC[C@H](NC(=O)[C@@H](N)CCCNC(=N)N)C(=O)N[C@@H](Cc3ccccc3)C(=O)N[C@@H](CCCNC(=N)N)C(=O)N[C@@H](CC(C)C)C(=O)N3CCC[C@H]3C(=O)N2)C(=O)CCSC[C@@H](C(=O)N[C@@H](CCCNC(=N)N)C(=O)N[C@@H](Cc2c[nH]c3ccccc23)C(=O)O)NC(=O)[C@H](CCCNC(=N)N)NC1=O` (H-RCFRLPCRHLRCRW-OH; linker 2-7-12 via TATA), the Ki was more than 3000 nM. Regarding `CC(C)C[C@@H]1NC(=O)[C@H](CCC(N)=O)NC(=O)[C@H](CCCNC(=N)N)NC(=O)[C@@H]2CSCCC(=O)N3CN(CN(C3)C(=O)CCSC[C@H](NC(=O)[C@@H](N)CCCNC(=N)N)C(=O)N[C@@H](Cc3csc4ccccc34)C(=O)N[C@@H](CCCNC(=N)N)C(=O)N[C@@H](CC(C)C)C(=O)N3CCC[C@H]3C(=O)N2)C(=O)CCSC[C@@H](C(=O)N[C@@H](CCCNC(=N)N)C(=O)N[C@@H](Cc2c[nH]c3ccccc23)C(=O)O)NC(=O)[C@H](CCCNC(=N)N)NC1=O`, the Ki worked out at 6.8 nM. For `Cc1cccc(C[C@@H]2NC(=O)[C@@H](NC(=O)[C@@H](N)CCCNC(=N)N)CSCCC(=O)N3CN4CN(C3)C(=O)CCSC[C@H](NC(=O)[C@@H]3CCCN3C(=O)[C@H](CC(C)C)NC(=O)[C@H](CCCNC(=N)N)NC2=O)C(=O)N[C@@H](CCCNC(=N)N)C(=O)N[C@@H](CCC(N)=O)C(=O)N[C@@H](CC(C)C)C(=O)N[C@@H](CCCNC(=N)N)C(=O)N[C@H](C(=O)N[C@@H](CCCNC(=N)N)C(=O)N[C@@H](Cc2c[nH]c3ccccc23)C(=O)O)CSCCC4=O)c1`, the affinity corresponds to a Ki of 3.7 nM. As for `CC(C)C[C@@H]1NC(=O)[C@H](CCC(N)=O)NC(=O)[C@H](CCCNC(=N)N)NC(=O)[C@@H]2CSCCC(=O)N3CN(CN(C3)C(=O)CCSC[C@@H](C(=O)N[C@@H](CCCNC(=N)N)C(=O)O)NC(=O)[C@H](CCCNC(=N)N)NC1=O)C(=O)CCSC[C@H](NC(=O)[C@H](C)N)C(=O)N[C@@H](Cc1ccccc1)C(=O)N[C@@H](CCCNC(=N)N)C(=O)N[C@@H](CC(C)C)C(=O)N1CCC[C@H]1C(=O)N2` (H-ACFRLPCRQLRCR-OH; linker 2-7-12 via TATA), the figure is 59.2 nM.

The record behind these values is ChEMBL document CHEMBL3992518, “Peptide Macrocycle Inhibitor of Coagulation Factor XII with Subnanomolar Affinity and High Target Selectivity” (J Med Chem, 2017).
